≈ marks a conversion by molar mass, not a printed value. Like-named read-outs stand apart in the source and are kept apart here. Where a SMILES comes first, the peptide text is derived from it. Where no end group is shown, it is not given here. [ ]: non-standard residue; d: D form. NMeL = CN[C@@H](CC(C)C)C(=O)O; Orn = NCCC[C@H](N)C(=O)O
Columns and labels:
K. Pneumonia 123132 = assay: Growth inhibition assay (MIC); format: cell-based, Klebsiella pneumoniae
Outline: (§1)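 Broth microdilution with two-fold peptide series, final 125 μg/mL down to 60 ng/mL, against overnight cultures adjusted to 5×10^6 CFU/mL in 1% TSB. Incubated 20 h at 37° C. Growth read by absorbance at 595 nm, triplicates.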

[1] = test system: K. Pneumonia K6, ATCC 700603; assay: Growth inhibition assay (MIC); format: cell-based, Klebsiella pneumoniae; settings: multidrug resistant strain; 1% TSB, 37° C., 20 hrs
Outline: as §1

M. luteus ATCC 10240 = format: cell-based, Micrococcus luteus
Outline: (§2)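 Bacteria grown overnight in NB at 37° C. were adjusted to 5×10^6 CFU/mL in 1% TSB and mixed 1:1 with a two-fold peptide series (final 125 μg/mL–60 ng/mL). After 20 hrs at 37° C., A595 was read; triplicates.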

K. pneumonia 681 = format: cell-based, Klebsiella pneumoniae
Outline: as §2

E. coli 1103 = format: cell-based, Escherichia coli
Outline: as §2

[2] = test system: S. enterica subsp. Enterica serovar. typhi G10215 ATCC 700408; format: cell-based, Salmonella enterica; settings: ATCC 700408, 20 h
Outline: as §1

E. coli 45849 = assay: Growth inhibition assay (MIC); format: cell-based, Escherichia coli
Outline: as §1

[3] = test system: R. radiobatter ATCC 15955; assay: Growth inhibition assay (MIC); format: cell-based, Rhizobium radiobacter
Outline: as §1

E. coli BL 21 AI = assay: Growth inhibition assay (MIC); format: cell-based, Escherichia coli; settings: 1% TSB, 37° C., 20 hrs
Outline: as §2

E. coli DC 2 = assay: Growth inhibition assay (MIC); format: cell-based, Escherichia coli; settings: 1% TSB, 37° C., 20 hrs
Outline: as §2

S. typhi S5 = format: cell-based, Salmonella typhi; settings: S5, 20 h
Outline: as §1

E. coli D31 = format: cell-based, Escherichia coli; settings: D31, 20 h
Outline: as §1

E. coli 10233 = format: cell-based, Escherichia coli
Outline: as §2

in vitro = in vitro ADME, mouse
Outline: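 Peptide or peptidomimetic (0.5 mg/mL aqueous stock) incubated in 25% pooled mouse serum at 37 °C, sampled at 0–6 h, in duplicate. Proteins precipitated with 15% TCA; supernatants neutralized and analyzed by RP-HPLC with 0.1% TFA. Degradation products identified by MALDI-TOF/TOF-MS.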

B. subtilis 347 = format: cell-based, Bactillus subtillis
Outline: as §2

[4] = multidrug resistant strain, 1% TSB, 37° C., 20 hrs
[5] = 25% aqueous mouse serum, 37° C., read-out: Half-life time

Compound | MIC K. Pneumonia 123132 (K. Pneumonia 123132; [4]) | MIC K. Pneumonia K6, ATCC 700603 [1] | MIC M. luteus ATCC 10240 (M. luteus ATCC 10240; ATCC 10240, 20 h) | MIC K. pneumonia 681 (K. pneumonia 681; 20 h) | MIC E. coli 1103 (E. coli 1103; 1103, 20 h) | MIC S. enterica subsp. Enterica serovar. typhi G10215 ATCC 700408 [2] | MIC E. coli 45849 (E. coli 45849; [4]) | MIC R. radiobatter ATCC 15955 [3, 4] | MIC E. coli BL 21 AI (E. coli BL 21 AI) | MIC E. coli DC 2 (E. coli DC 2) | MIC S. typhi S5 (S. typhi S5) | MIC E. coli D31 (E. coli D31) | MIC K. Pneumonia 123132 (K. Pneumonia 123132; 20 h) | MIC M. luteus ATCC 10240 (M. luteus ATCC 10240; 1% TSB, 37° C., 20 hrs) | MIC K. pneumonia 681 (K. pneumonia 681; 1% TSB, 37° C., 20 hrs) | MIC E. coli 10233 (E. coli 10233; 1% TSB, 37° C., 20 hrs) | MIC E. coli 1103 (E. coli 1103; 1% TSB, 37° C., 20 hrs) | half-life at 0.061 mg/mL (in vitro; [5]) | MIC E. coli 45849 (E. coli 45849; 45849, 20 h) | MIC R. radiobatter ATCC 15955 ([3]; ATCC 15955, 20 h) | other results
H-GNNRPVYLPQPRPPHPRI-NH2 [compound 26] | 32 mg/L | 128 mg/L | 1.95 mg/L | 15.62 mg/L | 3.91 mg/L | 4 mg/L | 16 mg/L | 2.6 mg/L | 3.91 mg/L | 7.81 mg/L | 32 mg/L | >128 mg/L | – | – | – | – | – | – | – | – | –
CC[C@H](C)[C@H](NC(=O)[C@H](Cc1ccc(O)cc1)NC(=O)[C@@H](NC(=O)[C@@H]1CCCN1C(=O)[C@H](CCCNC(=N)N)NC(=O)[C@H](CC(N)=O)NC(=O)[C@H](CC(N)=O)NC(=O)[C@H](CCCN)NC(C)=O)C(C)C)C(=O)N1CCC[C@H]1C(=O)N[C@@H](CCCN)C(=O)N1CCC[C@H]1C(=O)N[C@@H](CCCNC(=N)N)C(=O)N1CCC[C@H]1C(=O)N1CCC[C@H]1C(=O)N[C@@H](Cc1c[nH]cn1)C(=O)N1CCC[C@H]1C(=O)N[C@@H](CCCNC(=N)N)C(=O)N[C@@H](CC(C)C)C(N)=O [compound 13] (Ac-[Orn]NNRPVYIP[Orn]PRPPHPRL-NH2) | – | 8 mg/L (≈ 3.65 µM) | – | – | – | <0.25 mg/L | – | – | 1.95 mg/L (≈ 0.889 µM) | – | <0.5 mg/L | 4 mg/L (≈ 1.82 µM) | 8 mg/L (≈ 3.65 µM) | 1.95 mg/L (≈ 0.889 µM) | 3.91 mg/L (≈ 1.78 µM) | 1.95 mg/L (≈ 0.889 µM) | 3.81 mg/L (≈ 1.74 µM) | 0.25 h | 2 mg/L (≈ 0.912 µM) | <0.16 mg/L | degradation pathway in serum (N-/C-terminal) (in vitro; 25% mouse serum, metabolites by MALDI-MS): not degraded N-terminally, but only from the C-terminal end; MIC B. subtilis 347 (B. subtilis 347; 1% TSB, 37° C., 20 hrs): 125 mg/L (≈ 57 µM)
GNNRPVYIPRPRPPHPRI-NH2 [compound 14] | – | 8 mg/L | 0.98 mg/L | 15.62 mg/L | 0.98 mg/L | 2 mg/L | – | – | 0.49 mg/L | 7.81 mg/L | – | 64 mg/L | – | – | – | – | – | – | – | – | –
CC[C@H](C)[C@H](NC(=O)[C@H](Cc1ccc(O)cc1)NC(=O)[C@@H](NC(=O)[C@@H]1CCCN1C(=O)[C@H](CCCNC(=N)N)NC(=O)[C@H](CC(N)=O)NC(=O)[C@H](CC(N)=O)NC(=O)[C@H](CCCN)NC(C)=O)C(C)C)C(=O)N1CCC[C@H]1C(=O)N[C@@H](CCC(N)=O)C(=O)N1CCC[C@H]1C(=O)N[C@@H](CCCNC(=N)N)C(=O)N1CCC[C@H]1C(=O)N1CCC[C@H]1C(=O)N[C@@H](Cc1c[nH]cn1)C(=O)N1CCC[C@H]1C(=O)N[C@@H](CCCNC(=N)N)C(=O)N(C)[C@@H](CC(C)C)C(N)=O [compound 32] (Ac-[Orn]NNRPVYIPQPRPPHPR[NMeL]-NH2) | >64 mg/L | >128 mg/L | 7.81 mg/L (≈ 3.52 µM) | >125 mg/L | 31.4 mg/L (≈ 14.1 µM) | 8 mg/L (≈ 3.6 µM) | 8 mg/L (≈ 3.6 µM) | 1.3 mg/L (≈ 0.585 µM) | 15.63 mg/L (≈ 7.04 µM) | – | 32 mg/L (≈ 14.4 µM) | 64 mg/L (≈ 28.8 µM) | – | – | – | – | – | – | – | – | MIC E. coli 10233 (E. coli 10233; 10233, 20 h): 31.25 mg/L (≈ 14.1 µM); Half-life time (in vitro; 25% aqueous mouse serum, 37° C.): >6 h; half-life at 0.061 mg/mL (in vitro; mouse, 25% aqueous serum, 37° C., read-out: half-life): > 6 h; MIC B. subtilis 347 (B. subtilis 347; 347, 20 h): >125 mg/L
CC[C@H](C)[C@H](NC(=O)[C@@H]1CCCN1C(=O)[C@H](CCCNC(=N)N)NC(=O)[C@@H]1CCCN1C(=O)[C@H](Cc1c[nH]cn1)NC(=O)[C@@H]1CCCN1C(=O)[C@@H]1CCCN1C(=O)[C@H](CCCNC(=N)N)NC(=O)[C@@H]1CCCN1C(=O)[C@H](CCCNC(=N)N)NC(=O)[C@@H]1CCCN1C(=O)[C@@H](NC(=O)[C@H](Cc1ccc(O)cc1)NC(=O)[C@@H](NC(=O)[C@@H]1CCCN1C(=O)[C@H](CCCNC(=N)N)NC(=O)[C@H](CC(N)=O)NC(=O)[C@H](CC(N)=O)NC(=O)[C@@H](N)CCCN)C(C)C)[C@@H](C)CC)C(=O)N[C@@H](CCCNC(=N)N)C(=O)N[C@H](C(=O)O)C(C)C [compound 23] (H-[Orn]NNRPVYIPRPRPPHPRPIRV-OH) | 16 mg/L (≈ 6.28 µM) | 32 mg/L (≈ 12.6 µM) | 0.12 mg/L (≈ 0.0471 µM) | 62.5 mg/L (≈ 24.5 µM) | 7.81 mg/L (≈ 3.07 µM) | 8 mg/L (≈ 3.14 µM) | 8 mg/L (≈ 3.14 µM) | 0.65 mg/L (≈ 0.255 µM) | 1.95 to 3.91 mg/L | – | 8 mg/L (≈ 3.14 µM) | 64 mg/L (≈ 25.1 µM) | – | – | – | – | – | 4 h | – | – | MIC E. coli 10233 (E. coli 10233; 10233, 20 h): 3.91 mg/L (≈ 1.54 µM); MIC B. subtilis 347 (B. subtilis 347; 347, 20 h): 125 mg/L (≈ 49.1 µM)
CC[C@H](C)[C@H](NC(=O)[C@H](Cc1ccc(O)cc1)NC(=O)[C@@H](NC(=O)[C@@H]1CCCN1C(=O)[C@H](CCCNC(=N)N)NC(=O)[C@H](CC(N)=O)NC(=O)[C@H](CC(N)=O)NC(=O)[C@@H](N)CCCN)C(C)C)C(=O)N1CCC[C@H]1C(=O)N[C@@H](CCCN)C(=O)N1CCC[C@H]1C(=O)N[C@@H](CCCNC(=N)N)C(=O)N1CCC[C@H]1C(=O)N1CCC[C@H]1C(=O)N[C@@H](Cc1c[nH]cn1)C(=O)N1CCC[C@H]1C(=O)N[C@@H](CCCNC(=N)N)C(=O)N[C@@H](CC(C)C)C(N)=O [compound 12] (H-[Orn]NNRPVYIP[Orn]PRPPHPRL-NH2) | – | 4 mg/L (≈ 1.86 µM) | – | – | – | <0.25 mg/L | – | – | 0.98 mg/L (≈ 0.456 µM) | – | <0.5 mg/L | 4 mg/L (≈ 1.86 µM) | 4 mg/L (≈ 1.86 µM) | 1.95 mg/L (≈ 0.907 µM) | 7.81 mg/L (≈ 3.63 µM) | 0.98 to 1.95 mg/L | 3.91 mg/L (≈ 1.82 µM) | 0.25 h | 1 mg/L (≈ 0.465 µM) | 0.65 mg/L (≈ 0.302 µM) | MIC B. subtilis 347 (B. subtilis 347; 1% TSB, 37° C., 20 hrs): 62.5 mg/L (≈ 29.1 µM)
